US20200024223A1, “CRYSTALLINE SALTS OF (4S,4AS,5AR,12AS)-4-DIMETHYLAMINO-3,10,12,12A-TETRAHYDROXY-7-[(METHOXY(METHYL)AMINO)-METHYL]-1,11-DIOXO-1,4,4A,5,5A,6,11,12A-OCTAHYDRO-NAPHTHACENE-2-CARBOXYLIC ACID AMIDE AND METHODS OF USING THE SAME” (priority 2011, published 2020)
Values after ≈ are worked out from the molar mass of the structure shown. Read-outs that look alike come from different tables or passages of the source.

Columns and labels:
[1] = test system: S. aureus RN450-1; assay: S. aureus Thigh Wound Infection Model; type: in vivo; details: Staphylococcus aureus, RN4501, in Mus musculus, iv, read-out: S. aureus RN450-1 Thigh ED50
Protocol: Bacterial cultures were prepared by growing S. aureus RN450-1 overnight and diluting with sterile PBS. An injection of 100 μL of ˜1×10^6 CFU/mL in sterile PBS was injected into the thigh. Four groups of mice for each drug received doses of 0.33, 1, 3, or 9 mg/kg intravenously at 2 and 6 hours post infection. An additional group of untreated mice served as a negative control group. At 24 hours post infection, the thighs were collected aseptically, homogenized, and plated to enumerate bacterial load per thigh. Data are reported as ED50 values.

[2] = test system: E. faecium; assay: In vitro MIC testing, antibacterial spectrum of activity; type: cell-based; details: Enterococcus faecium, vancomycin-susceptible E. faecium
[3] = test system: S. pneumoniae PBS 1339; details: neutropenic CD-1 male mice, single IV dose 2 hours post infection, survival at 72 hours post infection
[4] = test system: S. aureus RN450-1; assay: S. aureus Systemic Intraperitoneal Challenge (IPC) Model; type: in vivo; details: CD-1 male mice, single SC dose 1 hour post infection, survival at 48 hours post infection
Protocol: Bacterial cultures were prepared by growing tetracycline-sensitive S. aureus RN450-1 overnight, then diluting with sterile phosphate-buffered saline (PBS). For each experiment, a total of 30 mice were infected by injection into the intraperitoneal cavity with 500 μl of 7.5×10^7 CFU in 5% sterile bacteriological mucin. […] The doses were administered subcutaneously (SC) at 1 hour post infection. An additional infected group of 5 mice was included as a negative control (untreated) group. For all studies but one, a positive control group(s) was included (e.g., doxycycline, minocycline, or ciprofloxacin). Mice were monitored for survival for up to 7 days. […] PD50 (protective dose, 50%) is the dose required to achieve 50% survival. The PD50 values reported are a mean of 2-3 independent experiments for each drug tested.

[5] = test system: S. pyogenes; assay: In vitro MIC testing, antibacterial spectrum of activity; type: cell-based; details: Streptococcus pyogenes, S. pyogenes
[6] = test system: Salmonella spp.; assay: as above; type: cell-based
[7] = test system: S. agalactiae; assay: as above; type: cell-based; details: Streptococcus agalactiae, S. agalactiae
[8] = test system: E. coli; assay: as above; type: cell-based
[9] = test system: E. cloacae; assay: as above; type: cell-based; details: Enterobacter cloacae, 7 of 30 strains inhibited
[10] = test system: Streptococcus spp. [Group C]; assay: as above; type: cell-based; details: Streptococcus, Group C streptococci
[11] = test system: Carrageenan-Induced Rat Footpad Edema; assay: Rat Carrageenan-Induced Footpad Edema inflammation model; type: in vivo; details: 3 hours post carrageenan
Protocol: Immediately following the carrageenan injection and 3 hours post-injection, the hind paw volume was measured with a digital water plethysmometer. Results were calculated as a percent change in paw volume over the 3 hours, divided by the baseline paw volume, and then adjusted for the mean percent inflammation in the untreated controls, and are presented in Table 10.

[12] = test system: S. pneumoniae; assay: In vitro MIC testing, antibacterial spectrum of activity; type: cell-based, Streptococcus pneumoniae; details: Streptococcus pneumoniae, PSSP, all but 3 strains inhibited
[13] = test system: Staphylococcus aureus; assay: Inhibition of macromolecular synthesis in Staphylococcus aureus (whole-cell assay); type: cell-based; details: S. aureus, at 8-fold the MIC
[14] = test system: Prevotella melaninogenica; assay: In vitro MIC testing against anaerobic bacteria; type: cell-based
[15] = test system: Streptococcus constellatus; assay: In vitro MIC testing against anaerobic bacteria; type: cell-based; details: ATCC27823
[16] = Thermo-gravimetric analysis (TGA); type: physicochemical
Protocol: TGA is used to determine changes in weight in relation to change in temperature, which may reveal degradation of the compound and the presence of solvates or hydrates. TGA analysis as disclosed herein was collected on a TA Instruments Q500 TGA equipped with a 16 position auto-sampler. The instrument was temperature calibrated using certified Alumel and Nickel. […] A nitrogen purge at 60 ml.min^−1 was maintained over the sample. The instrument control and data analysis software used was Advantage for Q Series v2.8.0.392 and Thermal Advantage v4.8.3 and the data was analyzed using Universal Analysis v4.4A. […] The observed apparent weight loss is due to instability of the machine. Table 5 below compares the DSC and TGA analysis of the crystalline salts of the present invention with the crystalline free base and Comparative Example 1.

[17] = Storage stability by HPLC-UV (chemical purity, β-isomer content, total impurity content); type: physicochemical
Protocol: The lower the β-isomer content, the higher the chemical purity of the salt. The β-isomer content is measured after synthesis of the salt and compared with the measured β-isomer content after storage for a designated period of time.
Another measure of chemical purity is defined by the content of other related impurities, by-products or degradation products of the salt, which represents the […] of the compound. The lower the content of total impurities as measured by HPLC, generally, by HPLC-UV, the higher the chemical purity of the salt. The total impurity content is measured after synthesis of the salt and compared with the measured total impurity content after storage for a designated period of time.
In order to determine the stability of Crystalline Mono Hydrochloride Salt, the β-isomer content of the salt was determined by HPLC-UV analysis and compared to the β-isomer content calculated after the salt was stored in an amber glass vial for approximately 75 days at ambient conditions.
The β-isomer content of Comparative Example 2 was also determined by HPLC-UV analysis at 0 days and compared to the β-isomer content calculated after the compound was stored in a clear glass vial for approximately 75 days at ambient conditions.
HPLC-UV and XRPD analysis were conducted on samples of Crystalline Mono Hydrochloride Salt, Crystalline Mesylate Salt and Crystalline Sulfate Salt at 0 days and after storage for 7 days at 40° C. and 75% RH. FIGS. 1, 4 and 7 show the XRPD analysis of the Crystalline Mono Hydrochloride Salt, Crystalline Mesylate Salt and Crystalline Sulfate Salt at 0 days and after storage at 40° C. and 75% RH with the graphs overlaid for comparison.
The results of HPLC-UV analysis for the same samples of Crystalline Mesylate Salt and Crystalline Sulfate Salt are shown in Table 4.

[18] = Differential scanning calorimetry (DSC); type: physicochemical
Protocol: DSC analysis as disclosed herein was collected on a TA Instruments Q2000 equipped with a 50 position auto-sampler. The instrument was calibrated for energy and temperature using certified indium. The calibration for thermal capacity was carried out using sapphire. […] A nitrogen purge at 50 ml.min^−1 was maintained over the sample. The instrument control software used was Advantage for Q Series v2.8.0.392 and Thermal Advantage v4.8.3 and the data was analyzed using Universal Analysis v4.4A. […] The observed apparent weight loss is due to instability of the machine. Table 5 below compares the DSC and TGA analysis of the crystalline salts of the present invention with the crystalline free base and Comparative Example 1.

[19] = Escherichia coli, read-out: MIC50
[20] = Escherichia coli, read-out: MIC90

CON(C)Cc1ccc(O)c2c1C[C@H]1C[C@H]3[C@H](N(C)C)C(O)=C(C(N)=O)C(=O)[C@@]3(O)C(O)=C1C2=O [The Active, (4S,4aS,5aR,12aS)-4-dimethylamino-3,10,12,12a-tetrahydroxy-7-[(methoxy(methyl)amino)-methyl]-1,11-dioxo-1,4,4a,5,5a,6,11,12a-octahydro-naphthacene-2-carboxylic acid amide]
ED50 [1]: 8.23 mg/kg | MIC ([2]; 17 strains inhibited): ≤ 0.5 µg/mL | MIC ([2]; remainder of the isolates): 16 to 32 µg/mL (≈ 32.8 to 65.6 µM) | S. pneumoniae PBS1339 RTI PD50 [3]: 4.66 mg/kg | S. aureus RN450-1 IPC PD50 [4]: 0.25 mg/kg | MIC ([5]; all but 6 strains inhibited): ≤ 0.25 µg/mL | MIC ([5]; elevated MICs for 5 strains): ≥ 4 µg/mL | MIC50 [6]: 16 µg/mL (≈ 32.8 µM) | MIC ([7]; 7 strains inhibited): ≤ 0.25 µg/mL | MIC ([7]; remainder of the isolates): 16 to 32 µg/mL (≈ 32.8 to 65.6 µM) | MIC50 [8]: 16 µg/mL (≈ 32.8 µM) | MIC90 [8]: > 64 µg/mL | MIC50 ([8]; Escherichia coli, E. coli (33 isolates), read-out: MIC50): 16 µg/mL (≈ 32.8 µM) | MIC [9]: ≤ 1 µg/mL | MIC ([10]; 19 strains inhibited): ≤ 0.25 µg/mL | MIC ([10]; remainder of the isolates): 4 to 16 µg/mL (≈ 8.2 to 32.8 µM) | Mean Percent Inflammation Compared to Untreated Controls ([11]; 1 mg/kg IP): 103% | Mean Percent Inflammation Compared to Untreated Controls ([11]; 5 mg/kg IP): 78% | Mean Percent Inflammation Compared to Untreated Controls ([11]; 10 mg/kg IP): 65% | Mean Percent Inflammation Compared to Untreated Controls ([11]; 25 mg/kg IP): 59% | Mean Percent Inflammation Compared to Untreated Controls ([11]; 50 mg/kg IP): 52% | Mean Percent Inflammation Compared to Untreated Controls ([11]; 75 mg/kg IP): 56% | Mean Percent Inflammation Compared to Untreated Controls ([11]; 100 mg/kg IP): 53% | Mean Percent Inflammation Compared to Untreated Controls ([11]; 150 mg/kg IP): 26% | MIC [12]: ≤ 0.25 µg/mL | inhibition for the synthesis of cell wall, DNA, RNA and lipid components [13]: less than 20%

CN(C)c1ccc(O)c2c1C[C@H]1C[C@H]3[C@H](N(C)C)C(O)=C(C(N)=O)C(=O)[C@@]3(O)C(O)=C1C2=O [Minocycline, minocycline]
S. aureus RN450-1 IPC PD50 [4]: 0.03 mg/kg | MIC90 [6]: 8 µg/mL (≈ 17.5 µM) | MIC Range [8]: 8 to 16 µg/mL | MIC ([8]; Escherichia coli): 16 µg/mL (≈ 35 µM) | MIC50 [8, 19]: 1 µg/mL (≈ 2.19 µM) | MIC90 [8, 20]: 8 µg/mL (≈ 17.5 µM) | Mean Percent Inflammation Compared to Untreated Controls ([11]; 25 mg/kg IP): 47% | Mean Percent Inflammation Compared to Untreated Controls ([11]; 50 mg/kg IP): 33% | Mean Percent Inflammation Compared to Untreated Controls ([11]; 75 mg/kg IP): 54% | Mean Percent Inflammation Compared to Untreated Controls ([11]; 100 mg/kg IP): 21% | MIC [14]: 16 µg/mL (≈ 35 µM) | MIC [15]: 16 µg/mL (≈ 35 µM)

C[C@H]1c2cccc(O)c2C(=O)C2=C(O)[C@]3(O)C(=O)C(C(N)=O)=C(O)[C@@H](N(C)C)[C@@H]3[C@@H](O)[C@@H]21 [Doxycycline, doxycycline]
ED50 [1]: 8.31 mg/kg | S. pneumoniae PBS1339 RTI PD50 [3]: 7.18 mg/kg | S. aureus RN450-1 IPC PD50 [4]: 0.30 mg/kg | MIC50 [6]: 2 µg/mL (≈ 4.5 µM) | MIC90 [6]: 32 µg/mL (≈ 72 µM) | MIC Range [8]: 64-64 μg/mL | MIC ([8]; Escherichia coli): 64 µg/mL (≈ 144 µM) | MIC50 [8, 19]: 2 µg/mL (≈ 4.5 µM) | MIC90 [8, 20]: 32 µg/mL (≈ 72 µM) | Mean Percent Inflammation Compared to Untreated Controls ([11]; 75 mg/kg IP): 68% | Mean Percent Inflammation Compared to Untreated Controls ([11]; 100 mg/kg IP): 36%

CON(C)Cc1ccc(O)c2c1C[C@H]1C[C@H]3[C@H](N(C)C)C(O)=C(C(N)=O)C(=O)[C@@]3(O)C(O)=C1C2=O [Comparative Example 1, (4S,4aS,5aR,12aS)-4-dimethylamino-3,10,12,12a-tetrahydroxy-7-[(methoxy(methyl)amino)-methyl]-1,11-dioxo-1,4,4a,5,5a,6,11,12a-octahydro-naphthacene-2-carboxylic acid amide]
TGA weight loss ([16]; from about 30° C. to about 106° C.): 7% weight loss from about 30 °C to | TGA weight loss ([16]; from about 106° C. to about 200° C.): 8% weight loss from about 106 °C | TGA weight loss ([16]; from about 200° C. to about 300° C.): 23% weight loss from about 200 °C | β-isomer content at 0 days ([17]; 0 days): 3.6 % peak area | β-isomer content after storage ([17]; 48 hours at about 40° C. and about 75% RH): 31.7 % peak area | β-isomer content after storage ([17]; 36 days at about 25° C. and about 60% RH): 8.7 % peak area | total impurity content at 0 days ([17]; HPLC-UV, 0 days): 4.2 % peak area | total impurity content after storage ([17]; about 2 days at about 40° C. and about 75% RH): 34.6 % peak area | Differential Scanning Calorimetry ([18]; after synthesis): Broad endothermic

CON(C)Cc1ccc(O)c2c1C[C@H]1C[C@H]3[C@H](N(C)C)C(O)=C(C(N)=O)C(=O)[C@@]3(O)C(O)=C1C2=O [Crystalline Free Base, (4S,4aS,5aR,12aS)-4-dimethylamino-3,10,12,12a-tetrahydroxy-7-[(methoxy(methyl)amino)-methyl]-1,11-dioxo-1,4,4a,5,5a,6,11,12a-octahydro-naphthacene-2-carboxylic acid amide]
TGA weight loss ([16]; from about 30° C. to decomposition at less than 220° C.): 15% weight loss from about 30 °C | DSC endothermic peak [18]: 175 °C (ΔH 72 J · g^−1)
